Among the data in article PMC8954747 (Viruses, 2022) are Kd values, retold here.

The target in the assay is SCRIB PDZ2 H928A (Homo sapiens, UniProt Q14160, H928A). As to the kind of experiment: biochemical. In kind it is binding.

Ends that are not written are not given here.

Sequence of SCRIB PDZ2 H928A (Q14160 860-950 H928A limits assumed): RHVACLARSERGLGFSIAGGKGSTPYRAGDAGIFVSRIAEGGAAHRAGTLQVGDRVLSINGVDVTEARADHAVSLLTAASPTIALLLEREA

As a reminder, the Kd is the concentration at which binding is half-saturated. Sequence KMARTIESEV [Vietnam (ESEV)] came in with a Kd of 3.6 ± 0.7 µM.
